Where two headings read alike, the source gives them in different places.
Columns and labels:
Format in all cases: cell-based
pRb = experiment: Western blot analysis of pRb level in HCT116 cells 48 h after oligonucleotide transfection; details: oligonucleotide 1 μM with lipofectin 19 μg/ml, extracts after 48 h, Western blot band intensity
Procedure: (§1) Sense and antisense phosphorothionate oligonucleotide with the sequence set out in SEQ1 and SEQ2 respectively were synthesised in a 380B DNA synthesiser. Each oligonucleotide was premixed with lipofectin reagent and diluted in DMEM (Gibco). 6 cm plates of HCT116 cells at 40-50% confluence were rinsed once with 4 ml serum free DMEM and transfected with the oligonucleotides at a final concentration of 1 μM and the lipofectin reagent at a final concentration of 19 μg/ml according to the manufacturer's instructions (Life Technologies Inc., Gaithersburg, Md.). After 4 hours, Foetal Calf Serum (Gibco) was added to a final concentration of 10%. A lipofectin only transfection was performed as a control. Cell extracts were harvested after 48 h and examined by Western blot analysis with a pRb antibody. Equal loading of protein samples was confirmed by Coomassie blue staining or by immunoreactivity with an anti-actin antibody (Sigma). The intensities of the Rb bands were quantised with an image scanner (Molecular Dynamics). […] The treatment with the sense oligonucleotide led to about a 5% reduction in the level of pRb. […] Apoptosis in the cultures 48 h after transfection was tested for using the TUNEL assay. An in situ apoptosis detection kit ApopTag (Oncor, Gaithersburg, Md.) was used as recommended by the manufacturer. […]

HCT116 cells [1] = experiment: Growth curves of transfected HCT116 cultures; details: oligonucleotide 1 μM with lipofectin
Procedure: as §1

HCT116 cells [2] = experiment: TUNEL assay (ApopTag) for apoptosis 48 h after transfection
Procedure: Sense and antisense phosphorothionate oligonucleotide with the sequence set out in SEQ1 and SEQ2 respectively were synthesised in a 380B DNA synthesiser. Each oligonucleotide was premixed with lipofectin reagent and diluted in DMEM (Gibco). 6 cm plates of HCT116 cells at 40-50% confluence were rinsed once with 4 ml serum free DMEM and transfected with the oligonucleotides at a final concentration of 1 μM and the lipofectin reagent at a final concentration of 19 μg/ml according to the manufacturer's instructions (Life Technologies Inc., Gaithersburg, Md.). After 4 hours, Foetal Calf Serum (Gibco) was added to a final concentration of 10%. A lipofectin only transfection was performed as a control. Cell extracts were harvested after 48 h and examined by Western blot analysis with a pRb antibody. Equal loading of protein samples was confirmed by Coomassie blue staining or by immunoreactivity with an anti-actin antibody (Sigma). The intensities of the Rb bands were quantised with an image scanner (Molecular Dynamics). […] The treatment with the sense oligonucleotide led to about a 5% reduction in the level of pRb. […] Apoptosis in the cultures 48 h after transfection was tested for using the TUNEL assay. An in situ apoptosis detection kit ApopTag (Oncor, Gaithersburg, Md.) was used as recommended by the manufacturer. The percentage of TUNEL positive cells was 1.5+/−1% for the lipofectin treated culture, 3+/−0.5% for the culture transfected with the sense oligonucleotide and 18+/−0.5% for the culture transfected with the antisense oligonucleotide. Thus, the sense oligonucleotide caused about a two-fold increase in apoptosis, but the antisense oligonucleotide caused over a 10-fold increase in apoptosis. As the antisense oligonucleotide inhibits growth and increases apoptosis, it is thus an effective chemotherapeutic agent.

Substance	level of pRb expression relative to the control culture treated only with lipofectin (pRb)	effect on growth (growth curves) compared with the lipofectin-treated control culture (HCT116 cells [1])	percentage of TUNEL positive cells (HCT116 cells [2]; HCT116 cells, 48 h after transfection, oligonucleotide 1 μM)	fold increase in apoptosis (HCT116 cells [2]; HCT116 cells, 48 h after transfection, versus lipofectin treated culture)	fold increase in apoptosis (HCT116 cells [2])
5′-GGTTTTGGGCGGCATGAC-3′ (DNA, all phosphorothioate, methylation of C not given here) [antisense oligonucleotide]	about 30%	displayed growth inhibition	18+/−0.5%	> 10 fold	–
5′-GTCATGCCGCCCAAAACC-3′ (phosphorothioate, further chemistry not given here) [sense oligonucleotide, reference compound]	–	–	–	–	two-fold

— patent US20030207792A1, “Treating cancer” (priority 2002, published 2003)
